# According to PMC7047876, “Potent Chimeric Antimicrobial Derivatives of the Medicago truncatula NCR247 Symbiotic Peptide” (Frontiers in Microbiology, 2020):
# Entries after “also recorded” stand apart in the source; their conditions may differ. Peptide text beside a SMILES is read from it.
# Assays:
# Type in all cases: cell-based
# [1] = system: Acinetobacter baumannii (ATCC 17978); assay: microbe, parasite or virus in culture; details: ATCC 17978, 3 h, pH 7.4; read-out: Minimal bactericidal concentration (MBC) A. b.
# Summary of the method: (§1)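 Washed mid-log cells in PPB, about 10^7/mL, met peptide dilutions for 3 h at 37°C. Regrowth on LB agar overnight defined the MBC.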
# [2] = system: Enterococcus faecalis (ATCC 29212); assay: microbe, parasite or virus in culture; details: ATCC 29212, 3 h, pH 7.4; read-out: Minimal bactericidal concentration (MBC) E. f.
# Summary of the method: as §1
# [3] = system: Escherichia coli (ATCC 8739); assay: microbe, parasite or virus in culture; details: ATCC 8739, 3 h, pH 7.4; read-out: Minimal bactericidal concentration (MBC) E. c.
# Summary of the method: as §1
# [4] = system: Klebsiella pneumoniae (NCTC 13440); assay: microbe, parasite or virus in culture; details: NCTC 13440, 3 h, pH 7.4; read-out: Minimal bactericidal concentration (MBC) K. p.
# Summary of the method: as §1
# [5] = system: Listeria monocytogenes (ATCC 19111); assay: microbe, parasite or virus in culture; details: ATCC 19111, 3 h, pH 7.4; read-out: Minimal bactericidal concentration (MBC) L. m.
# Summary of the method: as §1
# [6] = system: Pseudomonas aeruginosa (ATCC 27853); assay: microbe, parasite or virus in culture; details: ATCC 27853, 3 h, pH 7.4; read-out: Minimal bactericidal concentration (MBC) P. a.
# Summary of the method: as §1
# [7] = system: Salmonella enterica (ATCC 13076); assay: microbe, parasite or virus in culture; details: ATCC 13076, 3 h, pH 7.4; read-out: Minimal bactericidal concentration (MBC) S. e.
# Summary of the method: as §1
# [8] = system: Staphylococcus aureus (HNCMO112011); assay: microbe, parasite or virus in culture; details: HNCMO112011, 3 h, pH 7.4; read-out: Minimal bactericidal concentration (MBC) S. a.
# Summary of the method: as §1
# Acinetobacter baumannii = system: Acinetobacter baumannii
# Escherichia coli = system: Escherichia coli
# Staphylococcus aureus = system: Staphylococcus aureus
# [9] = system: human melanoma A375 cells; assay: XTT cell proliferation (cytotoxicity) assay; details: 72 h treatment, OD450, three biological repeats
# Protocol: The cytotoxicity of peptides X1-NCR247C and NCR247C-X2 was determined against the human melanoma A375 cells with XTT cell proliferation assay kit (PanReac Applichem) and a benchtop microplate reader (Multiskan RC, Thermo Labsystems) according to the manufacturers’ instructions. A375 human melanoma cell line was obtained from ATCC and maintained in DMEM (Lonza) supplemented by 10% FBS (Euroclone) in a humidified incubator at 37°C and 5% CO2. A375 cells were seeded to 96-well plates (4,000 cells/well) and treated with the peptides for 72 h. Cells without peptides served as negative control and the blank sample was the medium. Reduction of the tetrazolium salt XTT by the viable cells to the orange colored compounds of formazan was measured at OD450. The XTT assay was performed in three biological repeats.
Compound,MBC [1] [µM],MBC [2] [µM],MBC [3] [µM],MBC [4] [µM],MBC [5] [µM],MBC [6] [µM],MBC [7] [µM],MBC [8] [µM],"MBC in Mueller Hinton Broth, panel (A), A. b. (Acinetobacter baumannii; 3 h) [µM]","MBC in Mueller Hinton Broth, panel (B), A. b. (Acinetobacter baumannii; 20 h) [µM]","MIC in Mueller Hinton Broth, panel (C), A. b. (Acinetobacter baumannii; 20 h) [µM]","MBC in Mueller Hinton Broth, panel (A), E. c. (Escherichia coli; 3 h) [µM]","MBC in Mueller Hinton Broth, panel (B), E. c. (Escherichia coli; 20 h) [µM]","MIC in Mueller Hinton Broth, panel (C), E. c. (Escherichia coli; 20 h) [µM]","MBC in Mueller Hinton Broth, panel (A), S. a. (Staphylococcus aureus; 3 h) [µM]","MBC in Mueller Hinton Broth, panel (B), S. a. (Staphylococcus aureus; 20 h) [µM]","MIC in Mueller Hinton Broth, panel (C), S. a. (Staphylococcus aureus; 20 h) [µM]",Cytotoxicity / viability of A375 cells [9]
"CSCC[C@H](NC(=O)[C@H](CCCCN)NC(=O)[C@H](Cc1ccccc1)NC(=O)[C@H](CC(N)=O)NC(=O)[C@H](CC(C)C)NC(=O)[C@@H]1CCCN1C(=O)[C@@H](N)CCCNC(=N)N)C(=O)N[C@@H](CC(C)C)C(=O)N[C@@H](CCCNC(=N)N)C(=O)N[C@@H](Cc1ccccc1)C(=O)N[C@@H](Cc1c[nH]c2ccccc12)C(=O)NCC(=O)N[C@@H](CCC(N)=O)C(=O)N[C@@H](CCC(N)=O)C(=O)N[C@@H](CCC(N)=O)C(=O)N[C@@H](CS)C(=O)N[C@@H](CCCNC(=N)N)C(=O)N[C@@H](CCCNC(=N)N)C(=O)N1CCC[C@H]1C(=O)N[C@@H](CC(C)C)C(=O)N[C@@H](Cc1ccc(O)cc1)C(=O)N[C@@H](CS)C(=O)N[C@@H](CCCNC(=N)N)C(=O)N[C@@H](CCCNC(=N)N)C(=O)N[C@@H](CCCNC(=N)N)C(N)=O [D, X1-NCR247C] (H-RPLNFKMLRFWGQQQCRRPLYCRRR-NH2; N-terminus assumed)",3.1,6.3,3.1,12.5,3.1,3.1,1.6,3.1,6.3,3.1,3.1,12.5,3.1,3.1,25,3.1,3.1,did not show differences
"CC[C@H](C)[C@H](NC(=O)[C@H](CCCCN)NC(=O)[C@H](CCCCN)NC(=O)[C@H](C)NC(=O)[C@H](CC(C)C)NC(=O)[C@H](C)NC(=O)[C@H](C)NC(=O)[C@H](CC(C)C)NC(=O)[C@H](C)NC(=O)[C@H](CCCCN)NC(=O)[C@H](CCCNC(=N)N)NC(=O)[C@H](CCCNC(=N)N)NC(=O)[C@H](CCCNC(=N)N)NC(=O)[C@H](CS)NC(=O)[C@H](Cc1ccc(O)cc1)NC(=O)[C@H](CC(C)C)NC(=O)[C@@H]1CCCN1C(=O)[C@H](CCCNC(=N)N)NC(=O)[C@H](CCCNC(=N)N)NC(=O)[C@H](CS)NC(=O)[C@H](CCC(N)=O)NC(=O)[C@@H](N)CCC(N)=O)C(=O)N[C@@H](CC(C)C)C(N)=O [F, NCR247C-X2] (H-QQCRRPLYCRRRKALAALAKKIL-NH2; N-terminus assumed)",,,,,,,,,,,,,,,,,,no cytotoxicity up to 12.5 μM; also recorded: slight decrease of the viable cell number was observed at 25 μM
